Laboratory results reported in patent US20200032271A1, “COMBINATION THERAPY WITH LIPOSOMAL ANTISENSE OLIGONUCLEOTIDES” (Bio-Path Holdings, Inc., priority 2016, published 2020).
[PEt] = P-ethoxy (ethyl phosphotriester) internucleoside linkage

Experiment: Adverse events in study 2003-0578 (NCI CTCAE grading)
Excerpt: Each participant who receives study drug will be closely monitored for AEs. An AE is any untoward medical occurrence associated with the use of a drug in humans, whether or not considered drug related. Adverse events include any signs, symptoms, illnesses, or diagnoses that appear or worsen during the course of the study. An AE may be an intercurrent illness, an injury, or any concomitant impairment of the participant's health. All AEs occurring at any time from the time of consent through the end of treatment visit will be reported regardless of the etiology of the event. The NCI's CTCAE v4.03 will be used for grading AEs.
The causal relationship to BP1001 IP or Das for all AEs will be assessed as follows: (1) definitely related—AEs clearly attributable to study regimen administration; (2) probably related—AEs for which there is a reasonable possibility of causal association to study regimen; (3) possibly related—AEs for which there is confounding by comorbidities, medications or other considerations but for which it is not unreasonable that the AE may have been caused by study regimen; or (4) not related—AEs that are considered clearly not causally related to study regimen, or for which there is a clear alternative explanation

BP1001: liposome-incorporated P-ethoxy antisense oligodeoxynucleotide (5′-ATATTTGGCGATGGCTTC-3′, SEQ ID NO: 1) specific to grb2 mRNA, in neutral DOPC liposomes (DNA, all [PEt], methylation of C not given here; incorporated in neutral DOPC liposomes)
1: Hypoxia ≥Grade 3, number of patients (monotherapy 10 mg/m^2 (n = 6)) | Multi-organ failure ≥Grade 3, number of patients (monotherapy 10 mg/m^2 (n = 6)) | Neoplasms benign, malignant, and unspecified (incl. cysts and polyps) ≥Grade 3, number of patients (monotherapy 10 mg/m^2 (n = 6)) | Respiratory failure ≥Grade 3, number of patients (monotherapy 10 mg/m^2 (n = 6)) | AML progression, number of patients (monotherapy 20 mg/m^2 (n = 3)) | Blood and lymphatic system disorders ≥Grade 3, number of patients (monotherapy 20 mg/m^2 (n = 3)) | Leukocytosis ≥Grade 3, number of patients (monotherapy 20 mg/m^2 (n = 3)) | Patients with AEs ≥Grade 3, number of patients (monotherapy 20 mg/m^2 (n = 3)) | Acute kidney injury ≥Grade 3, number of patients (monotherapy 40 mg/m^2 (n = 3)) | Blood and lymphatic system disorders ≥Grade 3, number of patients (monotherapy 40 mg/m^2 (n = 3)) | Dyspnea ≥Grade 3, number of patients (monotherapy 40 mg/m^2 (n = 3)) | Hypokalemia ≥Grade 3, number of patients (monotherapy 40 mg/m^2 (n = 3)) | Leukocytosis ≥Grade 3, number of patients (monotherapy 40 mg/m^2 (n = 3)) | Metabolism and nutritional disorders ≥Grade 3, number of patients (monotherapy 40 mg/m^2 (n = 3)) | Renal and urinary disorders ≥Grade 3, number of patients (monotherapy 40 mg/m^2 (n = 3)) | Respiratory, thoracic, and mediastinal disorders ≥Grade 3, number of patients (monotherapy 40 mg/m^2 (n = 3))
2: Leukocytosis ≥Grade 3, number of patients (monotherapy 10 mg/m^2 (n = 6)) | Pneumonia ≥Grade 3, number of patients (monotherapy 10 mg/m^2 (n = 6)) | Respiratory distress ≥Grade 3, number of patients (monotherapy 10 mg/m^2 (n = 6))
4: Patients with AEs ≥Grade 3, number of patients (monotherapy 10 mg/m^2 (n = 6))
0: Hypovolemia ≥Grade 3, number of patients (monotherapy 10 mg/m^2 (n = 6)) | Investigations ≥Grade 3, number of patients (monotherapy 10 mg/m^2 (n = 6)) | Penile Pain ≥Grade 3, number of patients (monotherapy 10 mg/m^2 (n = 6)) | Platelet count decreased ≥Grade 3, number of patients (monotherapy 10 mg/m^2 (n = 6)) | Psychiatric disorders ≥Grade 3, number of patients (monotherapy 10 mg/m^2 (n = 6)) | Renal and urinary disorders ≥Grade 3, number of patients (monotherapy 10 mg/m^2 (n = 6)) | Reproductive system and breast disorders ≥Grade 3, number of patients (monotherapy 10 mg/m^2 (n = 6)) | Tumor lysis syndrome ≥Grade 3, number of patients (monotherapy 10 mg/m^2 (n = 6)) | Vascular disorders ≥Grade 3, number of patients (monotherapy 10 mg/m^2 (n = 6)) | Abdominal Pain ≥Grade 3, number of patients (monotherapy 20 mg/m^2 (n = 3)) | Acidosis ≥Grade 3, number of patients (monotherapy 20 mg/m^2 (n = 3)) | Acute kidney injury ≥Grade 3, number of patients (monotherapy 20 mg/m^2 (n = 3)) | Asthenia ≥Grade 3, number of patients (monotherapy 20 mg/m^2 (n = 3)) | Back Pain ≥Grade 3, number of patients (monotherapy 20 mg/m^2 (n = 3)) | Cardiac disorders ≥Grade 3, number of patients (monotherapy 20 mg/m^2 (n = 3)) | Cataract ≥Grade 3, number of patients (monotherapy 20 mg/m^2 (n = 3)) | Dyspnea ≥Grade 3, number of patients (monotherapy 20 mg/m^2 (n = 3)) | Extremity Lower Edema ≥Grade 3, number of patients (monotherapy 20 mg/m^2 (n = 3)) | Eye disorders ≥Grade 3, number of patients (monotherapy 20 mg/m^2 (n = 3)) | Febrile neutropenia ≥Grade 3, number of patients (monotherapy 20 mg/m^2 (n = 3)) | Gastrointestinal disorders ≥Grade 3, number of patients (monotherapy 20 mg/m^2 (n = 3)) | General disorders and administration site conditions ≥Grade 3, number of patients (monotherapy 20 mg/m^2 (n = 3)) | Hallucinations ≥Grade 3, number of patients (monotherapy 20 mg/m^2 (n = 3)) | Heart failure ≥Grade 3, number of patients (monotherapy 20 mg/m^2 (n = 3)) | Hepatic failure ≥Grade 3, number of patients (monotherapy 20 mg/m^2 (n = 3)) | Hepatobiliary disorders ≥Grade 3, number of patients (monotherapy 20 mg/m^2 (n = 3)) | Hypocalcemia ≥Grade 3, number of patients (monotherapy 20 mg/m^2 (n = 3)) | Hypoglycemia ≥Grade 3, number of patients (monotherapy 20 mg/m^2 (n = 3)) | Hypokalemia ≥Grade 3, number of patients (monotherapy 20 mg/m^2 (n = 3)) | Hyponatremia ≥Grade 3, number of patients (monotherapy 20 mg/m^2 (n = 3)) | Hypotension ≥Grade 3, number of patients (monotherapy 20 mg/m^2 (n = 3)) | Hypovolemia ≥Grade 3, number of patients (monotherapy 20 mg/m^2 (n = 3)) | Hypoxia ≥Grade 3, number of patients (monotherapy 20 mg/m^2 (n = 3)) | Investigations ≥Grade 3, number of patients (monotherapy 20 mg/m^2 (n = 3)) | Metabolism and nutritional disorders ≥Grade 3, number of patients (monotherapy 20 mg/m^2 (n = 3)) | Multi-organ failure ≥Grade 3, number of patients (monotherapy 20 mg/m^2 (n = 3)) | Musculoskeletal and connective tissue disorders ≥Grade 3, number of patients (monotherapy 20 mg/m^2 (n = 3)) | Neoplasms benign, malignant, and unspecified (incl. cysts and polyps) ≥Grade 3, number of patients (monotherapy 20 mg/m^2 (n = 3)) | Penile Pain ≥Grade 3, number of patients (monotherapy 20 mg/m^2 (n = 3)) | Platelet count decreased ≥Grade 3, number of patients (monotherapy 20 mg/m^2 (n = 3)) | Pneumonia ≥Grade 3, number of patients (monotherapy 20 mg/m^2 (n = 3)) | Psychiatric disorders ≥Grade 3, number of patients (monotherapy 20 mg/m^2 (n = 3)) | Renal and urinary disorders ≥Grade 3, number of patients (monotherapy 20 mg/m^2 (n = 3)) | Reproductive system and breast disorders ≥Grade 3, number of patients (monotherapy 20 mg/m^2 (n = 3)) | Respiratory distress ≥Grade 3, number of patients (monotherapy 20 mg/m^2 (n = 3)) | Respiratory failure ≥Grade 3, number of patients (monotherapy 20 mg/m^2 (n = 3)) | Respiratory, thoracic, and mediastinal disorders ≥Grade 3, number of patients (monotherapy 20 mg/m^2 (n = 3)) | Tumor lysis syndrome ≥Grade 3, number of patients (monotherapy 20 mg/m^2 (n = 3)) | Vascular disorders ≥Grade 3, number of patients (monotherapy 20 mg/m^2 (n = 3)) | Abdominal Pain ≥Grade 3, number of patients (monotherapy 40 mg/m^2 (n = 3)) | Acidosis ≥Grade 3, number of patients (monotherapy 40 mg/m^2 (n = 3)) | Asthenia ≥Grade 3, number of patients (monotherapy 40 mg/m^2 (n = 3)) | Back Pain ≥Grade 3, number of patients (monotherapy 40 mg/m^2 (n = 3)) | Cardiac disorders ≥Grade 3, number of patients (monotherapy 40 mg/m^2 (n = 3)) | Cataract ≥Grade 3, number of patients (monotherapy 40 mg/m^2 (n = 3)) | Extremity Lower Edema ≥Grade 3, number of patients (monotherapy 40 mg/m^2 (n = 3)) | Eye disorders ≥Grade 3, number of patients (monotherapy 40 mg/m^2 (n = 3)) | Febrile neutropenia ≥Grade 3, number of patients (monotherapy 40 mg/m^2 (n = 3)) | Gastrointestinal disorders ≥Grade 3, number of patients (monotherapy 40 mg/m^2 (n = 3)) | General disorders and administration site conditions ≥Grade 3, number of patients (monotherapy 40 mg/m^2 (n = 3)) | Hallucinations ≥Grade 3, number of patients (monotherapy 40 mg/m^2 (n = 3)) | Heart failure ≥Grade 3, number of patients (monotherapy 40 mg/m^2 (n = 3)) | Hepatic failure ≥Grade 3, number of patients (monotherapy 40 mg/m^2 (n = 3)) | Hepatobiliary disorders ≥Grade 3, number of patients (monotherapy 40 mg/m^2 (n = 3)) | Hypocalcemia ≥Grade 3, number of patients (monotherapy 40 mg/m^2 (n = 3)) | Hypoglycemia ≥Grade 3, number of patients (monotherapy 40 mg/m^2 (n = 3)) | Hyponatremia ≥Grade 3, number of patients (monotherapy 40 mg/m^2 (n = 3)) | Hypotension ≥Grade 3, number of patients (monotherapy 40 mg/m^2 (n = 3)) | Hypovolemia ≥Grade 3, number of patients (monotherapy 40 mg/m^2 (n = 3)) | Hypoxia ≥Grade 3, number of patients (monotherapy 40 mg/m^2 (n = 3)) | Investigations ≥Grade 3, number of patients (monotherapy 40 mg/m^2 (n = 3)) | Multi-organ failure ≥Grade 3, number of patients (monotherapy 40 mg/m^2 (n = 3)) | Musculoskeletal and connective tissue disorders ≥Grade 3, number of patients (monotherapy 40 mg/m^2 (n = 3)) | Neoplasms benign, malignant, and unspecified (incl. cysts and polyps) ≥Grade 3, number of patients (monotherapy 40 mg/m^2 (n = 3)) | Penile Pain ≥Grade 3, number of patients (monotherapy 40 mg/m^2 (n = 3)) | Platelet count decreased ≥Grade 3, number of patients (monotherapy 40 mg/m^2 (n = 3)) | Pneumonia ≥Grade 3, number of patients (monotherapy 40 mg/m^2 (n = 3)) | Psychiatric disorders ≥Grade 3, number of patients (monotherapy 40 mg/m^2 (n = 3)) | Reproductive system and breast disorders ≥Grade 3, number of patients (monotherapy 40 mg/m^2 (n = 3)) | Respiratory distress ≥Grade 3, number of patients (monotherapy 40 mg/m^2 (n = 3)) | Respiratory failure ≥Grade 3, number of patients (monotherapy 40 mg/m^2 (n = 3)) | Tumor lysis syndrome ≥Grade 3, number of patients (monotherapy 40 mg/m^2 (n = 3)) | Vascular disorders ≥Grade 3, number of patients (monotherapy 40 mg/m^2 (n = 3)) | Abdominal Pain ≥Grade 3, number of patients (monotherapy 60 mg/m^2 (n = 3)) | Acidosis ≥Grade 3, number of patients (monotherapy 60 mg/m^2 (n = 3)) | Acute kidney injury ≥Grade 3, number of patients (monotherapy 60 mg/m^2 (n = 3)) | Asthenia ≥Grade 3, number of patients (monotherapy 60 mg/m^2 (n = 3)) | Back Pain ≥Grade 3, number of patients (monotherapy 60 mg/m^2 (n = 3))
3: Metabolism and nutritional disorders ≥Grade 3, number of patients (monotherapy 10 mg/m^2 (n = 6)) | Respiratory, thoracic, and mediastinal disorders ≥Grade 3, number of patients (monotherapy 10 mg/m^2 (n = 6)) | AML progression, number of patients (monotherapy 40 mg/m^2 (n = 3)) | Patients with AEs ≥Grade 3, number of patients (monotherapy 40 mg/m^2 (n = 3)) | AML progression, number of patients (monotherapy 60 mg/m^2 (n = 3))
